Assay results: patent US20250313563A1, “GLYCOGEN SYNTHASE KINASE 3 INHIBITORS AND USES THEREOF” (The Broad Institute, Inc., priority 2022, published 2025)
Where two headings read alike, the source gives them in different places.

Key:
[1] = target: GSK3α (GST-full length GSK3α) (Homo sapiens (Human), UniProt P49840); assay: GSK3α TR-FRET kinase assay; type: biochemical
Procedure: (§1) TR-FRET Assay: The assay was performed in a white, 384 well, low volume, flat bottom plate (Grenier). After a 30 minute preincubation in assay buffer with the indicated concentration of compound, the kinase activity was initiated by the addition of the substrates. 1 nM GSK3α (GST-full length GSK3α [SignalChem G08-10G]) or 1 nM GSK3b (GST-full length GSK3b: [SignalChem G08-9G]) were then incubated at ambient temperature for 100 minutes in 10 μL of 50 mM Tris, pH 7.5, 20 mM MgCl2, 0.05 mM DTT, 100 μg/mL BSA and 1% DMSO, with 200 nM biotinylated peptide substrate (biotinylated and S645 phosphorylated glycogen synthase 631-650) and either 4 μM ATP (GSK3α, Table 16) or 2 μM ATP (GSK3b, Table 16) or 1 mM ATP (Table 17). The kinase activity was quenched with 2 μL of 250 mM EDTA. A 10 μL volume of 40 nM Strepavidin-d2, 2 nM Tb^2+-pSer641 antibody in TR-FRET Detection Buffer (Invitrogen) was then added. After 60 min at room temperature the plate was read on Envision plate reader using Ex: 340 nm, Em: 615 nm and […]. The normalized 665/615 Signal ratio versus log compound concentration was analyzed by XLFIT to yield IC50 values.

[2] = target: GSK3b (GST-full length GSK3b) (Homo sapiens (Human), UniProt P49841); assay: GSK3b TR-FRET kinase assay; type: biochemical
Procedure: as §1

[3] = read-out: GSK3-A (TR-FRET 1 mM ATP), GMean, IC50, 1 mM ATP, geometric mean
[4] = read-out: GSK3-B (TR-FRET 1 mM ATP), GMean, IC50, 1 mM ATP, geometric mean
[5] = 1 nM GSK3α, 4 μM ATP, 30 minute preincubation, geometric mean, read-out: GSK3-A TR-FRET BIOCHEMICAL (TR-FRET), GMean, IC50
[6] = 1 nM GSK3b, 2 μM ATP, 30 minute preincubation, geometric mean, read-out: GSK3-B TR-FRET BIOCHEMICAL (TR-FRET), GMean, IC50
[7] = 1 nM GSK3α, 4 μM ATP, 30 minute preincubation, Table 16, read-out: GSK3-A TR-FRET BIOCHEMICAL (TR-FRET)
[8] = 1 nM GSK3b, 2 μM ATP, 30 minute preincubation, Table 16, read-out: GSK3-B TR-FRET BIOCHEMICAL (TR-FRET)

GSK3α (GST-full length GSK3α), sequence (P49840 whole entry): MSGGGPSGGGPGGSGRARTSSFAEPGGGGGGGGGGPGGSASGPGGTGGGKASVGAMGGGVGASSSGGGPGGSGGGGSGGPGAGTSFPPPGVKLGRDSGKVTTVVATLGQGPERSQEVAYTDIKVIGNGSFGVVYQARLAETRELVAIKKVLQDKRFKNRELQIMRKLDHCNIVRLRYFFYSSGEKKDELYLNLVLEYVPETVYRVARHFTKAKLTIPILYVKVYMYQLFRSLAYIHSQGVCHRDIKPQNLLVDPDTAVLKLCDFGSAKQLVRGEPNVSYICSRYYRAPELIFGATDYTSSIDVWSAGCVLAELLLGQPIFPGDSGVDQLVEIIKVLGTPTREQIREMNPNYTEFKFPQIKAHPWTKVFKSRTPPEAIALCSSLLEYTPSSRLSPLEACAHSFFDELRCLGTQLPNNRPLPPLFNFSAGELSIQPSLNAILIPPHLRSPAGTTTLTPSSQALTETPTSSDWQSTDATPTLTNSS
GSK3b (GST-full length GSK3b), sequence (P49841 whole entry): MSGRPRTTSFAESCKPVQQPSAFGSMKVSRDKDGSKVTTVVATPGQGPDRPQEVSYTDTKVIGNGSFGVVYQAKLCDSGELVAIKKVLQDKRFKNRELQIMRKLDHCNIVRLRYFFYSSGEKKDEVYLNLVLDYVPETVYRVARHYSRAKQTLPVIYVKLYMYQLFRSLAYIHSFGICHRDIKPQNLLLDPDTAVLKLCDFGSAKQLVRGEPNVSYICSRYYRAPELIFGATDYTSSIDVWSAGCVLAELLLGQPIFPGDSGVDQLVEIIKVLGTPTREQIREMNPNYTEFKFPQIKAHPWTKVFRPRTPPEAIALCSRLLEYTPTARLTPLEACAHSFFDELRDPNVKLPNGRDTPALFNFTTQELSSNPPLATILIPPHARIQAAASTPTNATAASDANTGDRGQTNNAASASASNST

Compound	IC50 [1, 5]	IC50 [2, 6]	also measured
Cn1cncc1-c1cccc([C@@]2(C)C3=C(CC(C)(C)CC3=O)Nc3n[nH]c(CC(C)(C)C)c32)c1 [Compound 126015]	–	–	IC50 [1, 3]: > 5000 nM; IC50 [2, 4]: > 5000 nM
C[S+]([O-])c1cccc(C2(C)C3=C(CC(C)(C)CC3=O)Nc3n[nH]c(CC(C)(C)C)c32)c1 (stereo not drawn) [Compound 126191]	–	–	IC50 [1, 3]: > 5000 nM; IC50 [2, 4]: 100 to 1000 nM
Cn1cc(-c2cccc([C@@]3(C)C4=C(CC(C)(C)CC4=O)Nc4n[nH]c(CC(C)(C)C)c43)c2)cn1 [Compound 126367]	–	–	IC50 [1, 3]: > 5000 nM; IC50 [2, 4]: > 5000 nM
CC(C)(C)Cc1[nH]nc2c1[C@@](C)(c1cccc(S(=O)(=O)C(F)(F)F)c1)C1=C(CC(C)(C)CC1=O)N2 [Compound 126396]	–	–	IC50 [1, 3]: > 5000 nM; IC50 [2, 4]: > 5000 nM
CC1(C)CC(=O)C2=C(C1)Nc1n[nH]c(C3CC(F)(F)C3)c1C21COc2ccccc21 (stereo not drawn) [Compound 127429]	–	–	IC50 [1, 3]: > 5000 nM; IC50 [2, 4]: 1000 to 5000 nM
CCC1(c2ccc(F)cc2)C2=C(CC(C)(C)CC2=O)Nc2n[nH]cc21 (stereo not drawn) [Compound 772965]	1000 to 5000 nM	> 5000 nM	–
CC1(C)CC(=O)C2=C(C1)Nc1n[nH]cc1C2(C)c1cc(F)cc(F)c1 (stereo not drawn) [Compound 785735]	100 to 1000 nM	> 5000 nM	–
Cc1cccc(C2(C)C3=C(CC(C)(C)CC3=O)Nc3n[nH]cc32)c1 (stereo not drawn) [Compound 785736]	≤ 100 nM	100 to 1000 nM	–
CCC1(c2ccccc2)C2=C(CC3(CCCC3)CC2=O)Nc2n[nH]cc21 (stereo not drawn) [Compound 785737]	≤ 100 nM	100 to 1000 nM	–
CCC1(c2cccc(C)c2)C2=C(CC(C)(C)CC2=O)Nc2n[nH]cc21 (stereo not drawn) [Compound 785738]	≤ 100 nM	100 to 1000 nM	–
CCC1(c2ccc(C)cc2)C2=C(CC(C)(C)CC2=O)Nc2n[nH]cc21 (stereo not drawn) [Compound 785739]	100 to 1000 nM	> 5000 nM	–
CCC1(CC)C2=C(CC(C)(C)CC2=O)Nc2n[nH]c(C)c21 [Compound 786061]	–	–	IC50 [1, 7]: 100 to 1000 nM; IC50 [2, 8]: > 1670 nM
CC1(C)CC(=O)C2=C(C1)Nc1n[nH]cc1C2(C)C [Compound 786065]	–	–	IC50 ([1]; 1 nM GSK3α, 4 μM ATP, 30 minute preincubation, Table 16, read-out: GSK3-A TR-FRET BIOCHEMICAL (TR-FRET), IC50): 1000 to 5000 nM; IC50 ([2]; 1 nM GSK3b, 2 μM ATP, 30 minute preincubation, Table 16, read-out: GSK3-B TR-FRET BIOCHEMICAL (TR-FRET), IC50): > 1670 nM
Cc1[nH]nc2c1C1(CCCC1)C1=C(CC(C)(C)CC1=O)N2 [Compound 786072]	–	–	IC50 [1, 7]: ≤ 100 nM; IC50 [2, 8]: ≤ 100 nM
CC[C@@]1(c2ccccc2)C2=C(C[C@H](C)CC2=O)Nc2n[nH]cc21 [Compound 789009]	> 5000 nM	> 5000 nM	–
CC[C@@]1(c2ccccc2)C2=C(C[C@@H](C)CC2=O)Nc2n[nH]cc21 [Compound 789010]	100 to 1000 nM	100 to 1000 nM	–
CC[C@]1(c2ccccc2)C2=C(C[C@H](C)CC2=O)Nc2n[nH]cc21 [Compound 789011]	> 5000 nM	> 5000 nM	–
CC[C@]1(c2ccccc2)C2=C(C[C@H](C)CC2=O)Nc2n[nH]cc21 [Compound 789013]	100 to 1000 nM	> 5000 nM	–
CC1(C)CC(=O)C2=C(C1)Nc1n[nH]cc1C2(C)c1cccc(Br)c1 (stereo not drawn) [Compound 789277]	≤ 100 nM	100 to 1000 nM	–
CCC1(c2cccc(Br)c2)C2=C(CC(C)(C)CC2=O)Nc2n[nH]cc21 (stereo not drawn) [Compound 789312]	≤ 100 nM	100 to 1000 nM	–
CCC1(c2ccccc2)C2=C(CC3(CC3)CC2=O)Nc2n[nH]cc21 (stereo not drawn) [Compound 789330]	100 to 1000 nM	1000 to 5000 nM	–
C[C@@H]1CC(=O)C2=C(C1)Nc1n[nH]cc1[C@]2(C)c1ccccc1 [Compound 789331]	> 5000 nM	> 5000 nM	–
C[C@H]1CC(=O)C2=C(C1)Nc1n[nH]cc1[C@]2(C)c1ccccc1 [Compound 789332]	100 to 1000 nM	100 to 1000 nM	–
C[C@@H]1CC(=O)C2=C(C1)Nc1n[nH]cc1[C@@]2(C)c1ccccc1 [Compound 789333]	> 5000 nM	> 5000 nM	–
